Entries after “also recorded” stand apart in the source; their conditions may differ.
Assay: Hygroscopicity test (water content change with time under 30% humidity)
Format: physicochemical
Details: for hygroscopicity (result in words): humidity condition of 30% for 10 hours; for water content after being left under humidity: humidity condition of 30%, after about 10 hours; for initial water content: raw material before exposure to humidity condition of 30%
Method: In the figure, X axis indicates the elapse time and Y axis the water content.
In case of the polymorphic crystal, however, the initial water content was 2.9% but increased to 4.2% after 10 hours due to absorption moisture from air.

| hygroscopicity (result in words) | water content after being left under humidity [%] | initial water content [%] | SMILES |
| --- | --- | --- | --- |
| very low hygroscopicity | 0.2 | 0.1 | C[N+](C)(C)CCOP(=O)(O)OC[C@H](O)CO [Type I crystal, L-alpha-glyceryl phosphoryl choline] |
| very low hygroscopicity | 6.5 | 6.5 | C[N+](C)(C)CCOP(=O)(O)OC[C@H](O)CO [Type II crystal, L-alpha-glyceryl phosphoryl choline] |

| SMILES | hygroscopicity (result in words) | water content after being left under humidity [%] | initial water content [%] |
| --- | --- | --- | --- |
| C[N+](C)(C)CCOP(=O)(O)OC[C@H](O)CO [polymorphic crystal, L-alpha-glyceryl phosphoryl choline, reference compound] | relatively very hygroscopic; also recorded: high hygroscopicity | 4.2 | 2.9 |
